Data taken from ChEMBL document CHEMBL5053538, “Precursor-Directed Biosynthesis of Talaroenamine Derivatives Using a Yellow River Wetland-Derived Penicillium malacosphaerulum” (2021).
≈ marks a conversion by molar mass, not a printed value.

Experiments:
Type in all cases: functional
Bacillus cereus = assay: Antimicrobial activity against Bacillus cereus assessed as inhibition of bacterial growth incubated for 24 hrs by agar dilution method
Mycolicibacterium phlei = assay: Antimicrobial activity against Mycobacterium phlei assessed as inhibition of bacterial growth incubated for 24 hrs by agar dilution method
Escherichia coli = assay: Antimicrobial activity against Escherichia coli assessed as inhibition of bacterial growth incubated for 24 hrs by agar dilution method
Edwardsiella tarda = assay: Antimicrobial activity against Edwardsiella tarda assessed as inhibition of bacterial growth incubated for 24 hrs by agar dilution method
Proteus sp. = assay: Antimicrobial activity against Proteus sp. assessed as inhibition of bacterial growth incubated for 24 hrs by agar dilution method; conditions: Proteus sp. (in: enterobacteria)
Acinetobacter baumannii = assay: Antimicrobial activity against Acinetobacter baumannii assessed as inhibition of bacterial growth incubated for 24 hrs by agar dilution method
Bacillus subtilis = assay: Antimicrobial activity against Bacillus subtilis assessed as inhibition of bacterial growth incubated for 24 hrs by agar dilution method
Pseudomonas = assay: Antimicrobial activity against Pseudomonas assessed as inhibition of bacterial growth incubated for 24 hrs by agar dilution method

MIC (Bacillus cereus) [µg/mL] | MIC (Mycolicibacterium phlei) [µg/mL] | MIC (Escherichia coli) [µg/mL] | MIC (Edwardsiella tarda) [µg/mL] | MIC (Proteus sp.) [µg/mL] | MIC (Acinetobacter baumannii) [µg/mL] | MIC (Bacillus subtilis) [µg/mL] | MIC (Pseudomonas) [µg/mL] | Compound
> 10 | > 10 | 8.83 (≈ 24.9 µM) | > 10 | > 10 | > 10 | > 10 | > 10 | CC1=CC(=O)[C@@](C)(O)C(=O)/C1=C\Nc1ccc(Br)cc1F
> 10 | > 10 | > 10 | > 10 | > 10 | > 10 | > 10 | 7.76 (≈ 24.9 µM) | CC1=CC(=O)[C@@](C)(O)C(=O)/C1=C\Nc1cc(F)c(F)c(F)c1
0.26 (≈ 0.785 µM) | 0.26 (≈ 0.785 µM) |  | 0.02 (≈ 0.0604 µM) | 0.06 (≈ 0.181 µM) | 2.07 (≈ 6.25 µM) | 0.06 (≈ 0.181 µM) | 1.04 (≈ 3.14 µM) | O=C(O)c1cn(C2CC2)c2cc(N3CCNCC3)c(F)cc2c1=O [CIPROFLOXACIN]
> 10 | > 10 | > 10 | > 10 | > 10 | > 10 | > 10 | > 10 | CC1=CC(=O)[C@@](C)(O)C(=O)/C1=C\Nc1ccc(F)c([N+](=O)[O-])c1

Further lines, the compound ahead of its results:

Compound | MIC (Bacillus cereus) [µg/mL] | MIC (Mycolicibacterium phlei) [µg/mL] | MIC (Escherichia coli) [µg/mL] | MIC (Edwardsiella tarda) [µg/mL] | MIC (Proteus sp.) [µg/mL] | MIC (Acinetobacter baumannii) [µg/mL] | MIC (Bacillus subtilis) [µg/mL] | MIC (Pseudomonas) [µg/mL]
CC1=CC(=O)[C@@](C)(O)C(=O)/C1=C\Nc1cccc(OC(F)(F)F)c1 | 2.13 (≈ 6.24 µM) | > 10 | 4.26 (≈ 12.5 µM) | > 10 | 2.13 (≈ 6.24 µM) | > 10 | 2.13 (≈ 6.24 µM) | > 10
CC1=CC(=O)[C@@](C)(O)C(=O)/C1=C\Nc1ccc(C)cc1 | 0.85 (≈ 3.13 µM) | > 10 | 6.78 (≈ 25 µM) | > 10 | 6.78 (≈ 25 µM) | > 10 | 6.78 (≈ 25 µM) | > 10
CC1=CC(=O)[C@@](C)(O)C(=O)/C1=C\Nc1ccc(Br)cc1 | > 10 | > 10 | > 10 | > 10 | > 10 | > 10 | > 10 | > 10
CC1=CC(=O)[C@@](C)(O)C(=O)/C1=C\Nc1ccccc1 | > 10 | > 10 | > 10 | > 10 | > 10 | > 10 | > 10 | > 10
